Results published in patent publication US9481676B2, “Azepino[4,5-B]indoles and methods of use” (Medivation Technologies, Inc., priority 2008, dated 2016).

Legend:
[1] = biological target: T1, human recombinant adrenergic α2A receptor (Homo sapiens, UniProt P08913); experiment: Adrenergic alpha2A radioligand binding ([3H]MK-912); settings: compound at 1 μM; read-out: Adrenergic (1 μM) α2A, percent inhibition of specific binding
T1 construct: expressed in transfected cells; host or cells: insect Sf9 cells
T1 sequence (P08913 1-465): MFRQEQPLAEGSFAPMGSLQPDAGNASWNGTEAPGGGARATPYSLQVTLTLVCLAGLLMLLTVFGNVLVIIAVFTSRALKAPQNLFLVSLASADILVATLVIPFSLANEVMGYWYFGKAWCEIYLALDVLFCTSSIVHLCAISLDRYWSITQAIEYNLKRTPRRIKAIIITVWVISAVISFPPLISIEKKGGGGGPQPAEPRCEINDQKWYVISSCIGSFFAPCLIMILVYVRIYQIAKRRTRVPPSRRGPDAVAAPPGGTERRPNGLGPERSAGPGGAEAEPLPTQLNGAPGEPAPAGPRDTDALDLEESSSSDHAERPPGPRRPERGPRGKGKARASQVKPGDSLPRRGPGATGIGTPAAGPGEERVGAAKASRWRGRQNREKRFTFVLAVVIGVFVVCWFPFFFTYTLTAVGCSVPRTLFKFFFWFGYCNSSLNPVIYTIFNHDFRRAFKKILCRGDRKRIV
Description: To evaluate in radioligand binding assays the activity of compounds of the invention, human recombinant adrenergic α2A receptor expressed in insect Sf9 cells (Uhlen S et al. J Pharmacol Exp Ther. 271:1558, 1994) in a modified Tris-HCl buffer (50 mM Tris-HCl, pH 7.4, 12.5 mM MgCl2, 2 mM EDTA) was used. Compounds of invention were incubated with 1 nM [^3H]MK-912 for 60 min. at 25° C. MK912 is (2S-trans)-1,3,4,5′,6,6′,7,12b-octahydro-1′,3′-dimethyl-spiro[2 h-benzofuro [2,3-a]quinolizine-2,4′ (1′H)-pyrimidin]-2′ (3′H)-one hydrochloride Non-specific binding was estimated in the presence of 10 μM WB-4101 (2-(2,6-Dimethoxyphenoxyethyl)aminomethyl-1,4-benzodioxane hydrochloride). Receptor proteins were filtered and washed, the filters were then counted to determine [^3H]MK-912 specifically bound. Compounds were screened at 1 μM or lower, using 1% DMSO as vehicle. Biochemical assay results are presented as the percent inhibition of specific binding in Table 5.

[2] = biological target: T2, human recombinant dopamine D2L receptor (Homo sapiens, UniProt P14416); experiment: Dopamine D2L radioligand binding ([3H]Spiperone); settings: compound at 1 μM; read-out: Dopamine (1 μM) D2L, percent inhibition of specific binding
T2 construct: expressed in transfected cells; host or cells: CHO cells
T2 sequence (P14416 whole entry): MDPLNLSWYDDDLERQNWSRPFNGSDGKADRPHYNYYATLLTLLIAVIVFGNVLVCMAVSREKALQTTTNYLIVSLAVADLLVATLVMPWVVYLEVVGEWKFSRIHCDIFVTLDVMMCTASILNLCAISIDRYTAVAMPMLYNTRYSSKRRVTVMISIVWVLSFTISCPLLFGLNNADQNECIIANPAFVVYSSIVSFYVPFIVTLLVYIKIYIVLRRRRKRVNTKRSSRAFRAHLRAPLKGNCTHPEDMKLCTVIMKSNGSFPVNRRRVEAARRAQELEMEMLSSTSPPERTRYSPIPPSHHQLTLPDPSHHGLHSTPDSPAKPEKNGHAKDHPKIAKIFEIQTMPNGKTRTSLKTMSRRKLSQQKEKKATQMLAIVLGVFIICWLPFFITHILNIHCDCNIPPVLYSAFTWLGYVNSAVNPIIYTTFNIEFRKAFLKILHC
Outline: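 Binding measured by filtration and counting, reported as % inhibition of specific [3H]spiperone binding (0.16 nM tracer; 10 μM haloperidol for nonspecific). Compounds tested at ≤1 μM in 1% DMSO for 120 min at 25° C against CHO-expressed human D2L in pH 7.4 Tris-HCl buffer.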

[3] = biological target: T3, human recombinant serotonin (5-Hydroxytryptamine) 5-HT2C receptor (Homo sapiens, UniProt P28335); experiment: Serotonin 5-HT2C radioligand binding ([3H]Mesulergine); settings: compound at 1 μM; read-out: Serotonin (1 μM) 5-HT2C, percent inhibition of specific binding
T3 construct: expressed in transfected cells; host or cells: CHO-K1 cells
T3 sequence (P28335 33-458): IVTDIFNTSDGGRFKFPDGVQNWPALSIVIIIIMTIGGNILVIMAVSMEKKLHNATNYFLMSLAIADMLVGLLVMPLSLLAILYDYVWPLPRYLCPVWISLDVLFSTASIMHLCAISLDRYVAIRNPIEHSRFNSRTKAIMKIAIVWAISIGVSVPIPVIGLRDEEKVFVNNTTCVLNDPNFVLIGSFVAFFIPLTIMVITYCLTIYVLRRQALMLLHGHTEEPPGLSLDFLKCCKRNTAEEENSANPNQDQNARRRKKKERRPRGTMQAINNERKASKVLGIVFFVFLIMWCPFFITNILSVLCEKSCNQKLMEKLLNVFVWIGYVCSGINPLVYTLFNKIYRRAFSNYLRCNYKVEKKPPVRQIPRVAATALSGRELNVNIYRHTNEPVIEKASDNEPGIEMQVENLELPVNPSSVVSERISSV
Outline: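 Membranes from CHO-K1 cells expressing human 5-HT2C, incubated with 1 nM [3H]mesulergine for 60 min at 25 °C in 50 mM Tris-HCl pH 7.4 with ascorbic acid and pargyline.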

[4] = biological target: T4, human recombinant serotonin (5-Hydroxytryptamine) 5-HT6 receptor (Homo sapiens, UniProt P50406); experiment: Serotonin 5-HT6 radioligand binding ([3H]LSD); settings: compound at 1 μM; read-out: Serotonin (1 μM) 5-HT6, percent inhibition of specific binding
T4 construct: expressed in transfected cells; host or cells: human HeLa cells
T4 sequence (P50406 whole entry): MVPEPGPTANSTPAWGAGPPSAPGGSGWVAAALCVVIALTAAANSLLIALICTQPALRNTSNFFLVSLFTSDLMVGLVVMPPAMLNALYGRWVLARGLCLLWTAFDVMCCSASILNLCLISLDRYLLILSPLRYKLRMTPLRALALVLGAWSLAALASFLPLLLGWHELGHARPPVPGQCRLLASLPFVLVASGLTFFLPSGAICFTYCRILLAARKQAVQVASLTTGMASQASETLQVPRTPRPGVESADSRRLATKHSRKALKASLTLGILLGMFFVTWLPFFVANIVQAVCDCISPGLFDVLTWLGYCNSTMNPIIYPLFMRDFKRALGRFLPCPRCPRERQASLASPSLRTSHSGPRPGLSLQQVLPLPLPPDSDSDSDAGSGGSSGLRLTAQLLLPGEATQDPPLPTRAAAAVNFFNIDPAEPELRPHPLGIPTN
Outline: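 Human recombinant 5-HT6 receptor from HeLa cells incubated with 1.5 nM [3H]LSD for 120 min at 37° C in 50 mM Tris-HCl pH 7.4, 150 mM NaCl, 2 mM ascorbic acid, 0.001% BSA. Nonspecific binding defined with 5 μM serotonin; bound ligand counted after filtration.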

| SMILES | inhibition at 1 µM [1] [%] | inhibition at 1 µM [2] [%] | inhibition at 1 µM [3] [%] | inhibition at 1 µM [4] [%] |
| --- | --- | --- | --- | --- |
| Cc1ccc2c(c1)c1c(n2CCc2cncc(Cl)c2)CCN(C)CC1 [Compound No. 4, 6-(2-(5-chloropyridin-3-yl)ethyl)-1,2,3,4,5,6-hexahydro-3,9-dimethylazepino[4,5-b]indole] | 85 | 2 | 89 | 83 |
| CN1CCc2c(n(CCc3ccncc3)c3ccc(Cl)cc23)CC1 [Compound No. 5, 9-chloro-1,2,3,4,5,6-hexahydro-3-methyl-6-(2-(pyridin-4-yl)ethyl)azepino[4,5-b]indole] | 97 | 34 | 90 | 93 |
| Cc1ccc2c(c1)c1c(n2CCc2ccncc2)CCN(C)CC1 [Compound No. 6, 1,2,3,4,5,6-hexahydro-3,9-dimethyl-6-(2-(pyridin-4-yl)ethyl)azepino[4,5-b]indole] | 93 | 30 | 92 | 82 |
| Cc1ccc(C(O)Cn2c3c(c4cc(Cl)ccc42)CCN(C)CC3)cn1 (stereo not shown) [Compound No. 7, 2-(9-chloro-2,3,4,5-tetrahydro-3-methylazepino[4,5-b]indol-6(1H)-yl)-1-(6-methylpyridin-3-yl)ethanol] | 84 | 15 | 64 | 36 |
| CN1CCc2c(n(CCc3ccccn3)c3ccc(Cl)cc23)CC1 [Compound No. 8, 9-chloro-1,2,3,4,5,6-hexahydro-3-methyl-6-(2-(pyridin-2-yl)ethyl)azepino[4,5-b]indole] | 95 | 42 | 95 | 100 |
| Cc1ccc2c(c1)c1c(n2CCc2ccccn2)CCN(C)CC1 [Compound No. 9, 1,2,3,4,5,6-hexahydro-3,9-dimethyl-6-(2-(pyridin-2-yl)ethyl)azepino[4,5-b]indole] | 88 | 20 | 93 | 81 |
| CN1CCc2c(n(CCc3cncc(Cl)c3)c3ccc(Cl)cc23)CC1 [Compound No. 10, 9-chloro-6-(2-(5-chloropyridin-3-yl)ethyl)-1,2,3,4,5,6-hexahydro-3-methylazepino[4,5-b]indole] | 96 | 35 | 92 | 97 |
| Cc1ccc2c(c1)c1c(n2CCc2ccc(C(=O)O)nc2)CCN(C)CC1 [Compound No. 11, 5-(2-(2,3,4,5-tetrahydro-3,9-dimethylazepino[4,5-b]indol-6(1H)-yl)ethyl)pyridine-2-carboxylic acid] | 1 | -11 | 34 | 4 |
| CN1CCc2c(n(CC(C)(O)c3ccc(Cl)cc3)c3ccc(Cl)cc23)CC1 (stereo not shown) [Compound No. 12, 1-(9-chloro-2,3,4,5-tetrahydro-3-methylazepino[4,5-b]indol-6(1H)-yl)-2-(4-chlorophenyl)propan-2-ol] | 101 | 45 | 92 | 83 |
| CN1CCc2c(n(CC(C)(O)c3ccc(F)cc3)c3ccc(Cl)cc23)CC1 (stereo not shown) [Compound No. 13, 1-(9-chloro-2,3,4,5-tetrahydro-3-methylazepino[4,5-b]indol-6(1H)-yl)-2-(4-fluorophenyl)propan-2-ol] | 94 | 38 | 89 | 100 |
| Cc1ccc2c(c1)c1c(n2CC(C)(O)c2ccc(F)cc2)CCN(C)CC1 (stereo not shown) [Compound No. 14, 2-(4-fluorophenyl)-1-(2,3,4,5-tetrahydro-3,9-dimethylazepino[4,5-b]indol-6(1H)-yl)propan-2-ol] | 90 | 38 | 95 | 93 |
| Cc1ccc2c(c1)c1c(n2CC(C)(O)c2ccc(Cl)cc2)CCN(C)CC1 (stereo not shown) [Compound No. 15, 2-(4-chlorophenyl)-1-(2,3,4,5-tetrahydro-3,9-dimethylazepino[4,5-b]indol-6(1H)-yl)propan-2-ol] | 93 | 45 | 100 | 82 |
| CN1CCc2c(n(CC(O)c3ccc(Cl)cc3)c3ccc(Cl)cc23)CC1 (stereo not shown) [Compound No. 16, 2-(9-chloro-2,3,4,5-tetrahydro-3-methylazepino[4,5-b]indol-6(1H)-yl)-1-(4-chlorophenyl)ethanol] | 105 | 37 | 92 | 78 |
| Cc1ccc2c(c1)c1c(n2CC(O)c2ccc(Cl)cc2)CCN(C)CC1 (stereo not shown) [Compound No. 17, 1-(4-chlorophenyl)-2-(2,3,4,5-tetrahydro-3,9-dimethylazepino[4,5-b]indol-6(1H)-yl)ethanol] | 105 | 34 | 93 | 80 |
| CN1CCc2c(n(CC(O)c3cccnc3)c3ccc(Cl)cc23)CC1 (stereo not shown) [Compound No. 18, 2-(9-chloro-2,3,4,5-tetrahydro-3-methylazepino[4,5-b]indol-6(1H)-yl)-1-(pyridin-3-yl)ethanol] | 92 | 3 | 64 | 60 |
| Cc1ccc2c(c1)c1c(n2CC(O)c2cccnc2)CCN(C)CC1 (stereo not shown) [Compound No. 19, 2-(2,3,4,5-tetrahydro-3,9-dimethylazepino[4,5-b]indol-6(1H)-yl)-1-(pyridin-3-yl)ethanol] | 69 | 12 | 52 | 42 |
| Cc1ccc2c(c1)c1c(n2CCc2ccc(C(F)(F)F)nc2)CCN(C)CC1 [Compound No. 20, 6-(2-(6-(trifluoromethyl)pyridin-3-yl)ethyl)-1,2,3,4,5,6-hexahydro-3,9-dimethylazepino[4,5-b]indole] | 68 | 13 | 77 | 46 |
| CN1CCc2c(n(CCc3ccc(C(=O)O)nc3)c3ccc(Cl)cc23)CC1 [Compound No. 21, 5-(2-(9-chloro-2,3,4,5-tetrahydro-3-methylazepino[4,5-b]indol-6(1H)-yl)ethyl)pyridine-2-carboxylic acid] | -7 | 6 | 29 | 30 |
| Cc1ccc2c(c1)c1c(n2CC(=O)NC2CCCCC2)CCN(C)CC1 [Compound No. 22, N-cyclohexyl-2-(2,3,4,5-tetrahydro-3,9-dimethylazepino[4,5-b]indol-6(1H)-yl)acetamide] | -14 | 0 | -4 | -12 |
